# Columns and labels:
# CDK2 [1] = target: CDK2 (UniProt P24941); assay: Enzyme Assay
# CDK2 [2] = target: CDK2 (UniProt P24941); assay: Enzyme Assay; remark: listed apart in the source
# MAPK14 = MAPK14 (UniProt Q16539); assay: Inhibition of MAPK14 Kinase Activity; details: concentration not given here
# ROCK2 = ROCK2 (UniProt O75116); assay: Inhibition of ROCK2 Kinase Activity; details: concentration not given here
# Chain of ROCK2 (O75116 whole entry, looked up): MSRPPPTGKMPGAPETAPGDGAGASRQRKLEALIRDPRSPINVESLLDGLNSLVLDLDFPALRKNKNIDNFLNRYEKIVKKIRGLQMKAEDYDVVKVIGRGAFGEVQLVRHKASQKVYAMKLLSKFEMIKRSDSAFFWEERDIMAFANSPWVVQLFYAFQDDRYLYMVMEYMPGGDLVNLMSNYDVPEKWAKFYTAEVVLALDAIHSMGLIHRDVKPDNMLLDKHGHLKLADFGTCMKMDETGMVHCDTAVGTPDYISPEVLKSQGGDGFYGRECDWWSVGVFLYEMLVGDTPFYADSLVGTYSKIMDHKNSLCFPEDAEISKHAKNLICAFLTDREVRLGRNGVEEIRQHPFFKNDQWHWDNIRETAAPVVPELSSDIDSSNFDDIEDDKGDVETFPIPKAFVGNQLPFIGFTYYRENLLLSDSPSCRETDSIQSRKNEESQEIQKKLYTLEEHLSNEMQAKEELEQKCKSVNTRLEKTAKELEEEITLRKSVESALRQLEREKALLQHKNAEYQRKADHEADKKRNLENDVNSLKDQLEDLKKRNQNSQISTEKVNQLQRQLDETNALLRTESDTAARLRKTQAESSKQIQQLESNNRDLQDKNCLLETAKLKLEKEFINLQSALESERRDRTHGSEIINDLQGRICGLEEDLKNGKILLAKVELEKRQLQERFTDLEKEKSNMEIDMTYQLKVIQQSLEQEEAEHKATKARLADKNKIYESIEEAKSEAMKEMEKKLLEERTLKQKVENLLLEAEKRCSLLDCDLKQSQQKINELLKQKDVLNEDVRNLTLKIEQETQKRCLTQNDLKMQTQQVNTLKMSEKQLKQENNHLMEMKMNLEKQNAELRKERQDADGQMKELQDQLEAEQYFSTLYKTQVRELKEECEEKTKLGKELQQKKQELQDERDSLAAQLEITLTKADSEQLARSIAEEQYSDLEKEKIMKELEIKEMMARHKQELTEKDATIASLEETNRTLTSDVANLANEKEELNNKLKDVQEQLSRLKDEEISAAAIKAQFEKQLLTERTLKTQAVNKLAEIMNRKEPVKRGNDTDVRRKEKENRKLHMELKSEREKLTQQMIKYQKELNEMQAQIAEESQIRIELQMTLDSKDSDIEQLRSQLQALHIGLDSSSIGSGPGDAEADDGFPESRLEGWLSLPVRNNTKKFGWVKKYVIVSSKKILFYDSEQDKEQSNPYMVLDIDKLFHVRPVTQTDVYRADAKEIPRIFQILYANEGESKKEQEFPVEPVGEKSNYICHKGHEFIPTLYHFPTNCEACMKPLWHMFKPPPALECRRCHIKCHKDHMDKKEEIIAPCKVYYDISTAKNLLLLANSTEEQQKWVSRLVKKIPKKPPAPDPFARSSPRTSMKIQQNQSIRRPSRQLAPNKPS
# Chain of MAPK14 (Q16539 whole entry, looked up): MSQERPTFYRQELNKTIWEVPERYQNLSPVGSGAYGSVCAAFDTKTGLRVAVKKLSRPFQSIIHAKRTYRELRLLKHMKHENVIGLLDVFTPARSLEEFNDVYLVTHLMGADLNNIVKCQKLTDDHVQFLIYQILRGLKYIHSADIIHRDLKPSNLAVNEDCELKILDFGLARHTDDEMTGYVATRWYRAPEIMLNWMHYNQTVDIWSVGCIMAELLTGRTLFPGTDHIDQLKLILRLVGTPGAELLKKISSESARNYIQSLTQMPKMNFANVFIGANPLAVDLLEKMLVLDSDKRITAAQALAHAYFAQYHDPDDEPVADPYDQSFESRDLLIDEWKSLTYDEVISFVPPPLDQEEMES
smiles,measurement,setting,value
COc1ccc(Nc2nccc(-c3nc(C)c(C)s3)n2)cn1,IC50,CDK2 [1],> 1 µM
same,IC50,CDK2 [2],> 10 µM
Cc1nc(-c2ccnc(Nc3ccc(Cl)nc3)n2)sc1C,IC50,CDK2 [1],> 10 µM
same,IC50,CDK2 [2],> 10 µM
CCOC(=O)c1sc(-c2ccnc(Nc3ccc(Cl)cc3)n2)nc1O,IC50,CDK2 [1],> 1 µM
same,IC50,CDK2 [2],> 10 µM
Clc1ccc(Nc2nccc(-c3nccs3)n2)cn1,IC50,CDK2 [1],11 µM
same,Ki,CDK2 [1],5.5 µM
same,IC50,CDK2 [2],> 50 µM
same,Ki,CDK2 [2],> 50 µM
same,inhibition,MAPK14,16%
same,inhibition,ROCK2,13%
COc1ccc(Nc2nccc(-c3nccs3)n2)cn1,IC50,CDK2 [1],> 50 µM
same,IC50,CDK2 [2],> 100 µM

# Reference: the Kinase Knowledgebase extract (Sharma et al. 2016)
